From US8871681B2, “Herbicidal compositions comprising 4-amino-3-chloro-5-fluoro-6-(4-chloro-2-fluoro-3-methoxyphenyl) pyridine-2-carboxylic acid or a derivative thereof and certain sulfonylureas” (Dow AgroSciences LLC, priority 2012, dated 2014)

Columns and labels:
[1] = test system: ECHOR (Echinochloa oryzoides, early watergrass); test: In-water applied weed control, transplanted paddy rice, greenhouse (Example II); type: in vivo, Echinochloa oryzoides (Ard.) Fritsch
Protocol: (§1) Weed seeds or nutlets of the desired test plant species were planted in puddled soil (mud) prepared by mixing a shredded, non-sterilized mineral soil (50.5 percent silt, 25.5 percent clay, and 24 percent sand, with a pH of about 7.6 and an organic matter content of about 2.9 percent) and water at a 1:1 volumetric ratio. The prepared mud was dispensed in 365 mL aliquots into 16-ounce (oz.) non-perforated plastic pots with a surface area of 86.59 square centimeters (cm^2) leaving a headspace of 3 centimeters (cm) in each pot. Rice seeds were planted in Sun Gro MetroMix® 306 planting mixture, which typically has a pH of 6.0 to 6.8 and an organic matter content of about 30 percent, in plastic plug trays. Seedlings at the second or third leaf stage of growth were transplanted into 860 mL of mud contained in 32-oz. non-perforated plastic pots with a surface area of 86.59 cm^2 4 days prior to herbicide application. The paddy was created by filling the headspace of the pots with 2.5 to 3 cm of water. When required to ensure good germination and healthy plants, a fungicide treatment and/or other chemical or physical treatment was applied. The plants were grown for 4-22 days in a greenhouse with an approximate 14 h photoperiod which was maintained at about 29′C during the day and 26° C. during the night. Nutrients were added as Osmocote® (19:6:12, N:P:K+minor nutrients) at 2 g per 16-oz. pot and 4 g per 32-oz. pot. Water was added on a regular basis to maintain the paddy flood, and supplemental lighting was provided with overhead metal halide 1000-Watt lamps as necessary. The plants were employed for testing when they reached the first through fourth true leaf stage.
(§2) Treatments consisted of the acid or esters of 4-amino-3-chloro-5-fluoro-6-(4-chloro-2-fluoro-3-methoxy-phenyl)pyridine-2-carboxylic acid (compound A) each formulated as an SC and various herbicidal components alone and in combination. Forms of compound A were applied on an acid equivalent basis.
(§3) Other herbicidal components were applied on an active ingredient basis and included acetolactate synthase (ALS)-inhibiting herbicides (sulfonylurea chemical class), azimsulfuron formulated as Gulliver®, bensulfuron-methyl formulated as Londax® 60DF, cyclosulfamuron (technical grade materail), ethoxysulfuron formulated as Sunrice® 15 WDG, flucetosulfuron formulated as Sukedachi® 1KG G, imazosulfuron formulated as Brazzos®, metsulfuron-methyl formulated as Lorate®, nicosulfuron formulated as Accent®, orthosulfamuron formulated as Strada® WG, propyrisulfuron formulated as Zeta One®, and rimsulfuron formulated as Matrix® WG.
(§4) Treatment requirements for each compound or herbicidal component were calculated based upon the rates being tested, the concentration of active ingredient or acid equivalent in the formulation, an application volume of 2 mL per component per pot, and an application area of 86.59 cm^2 per pot.
(§5) For formulated compounds, a measured amount was placed in an individual 100 or 200 mL glass vial and was dissolved in a volume of 1.25% (v/v) Agri-Dex® crop oil concentrate to obtain application solutions.
(§6) For technical grade compounds, a weighed amount was placed in an individual 100 to 200 mL glass vial and was dissolved in a volume of acetone to obtain concentrated stock solutions. […] The concentrated stock solutions obtained were diluted with an equivalent volume of an aqueous mixture containing 2.5% (v/v) crop oil concentrate so that the final application solutions contained 1.25% (v/v) crop oil concentrate.
(§7) Applications were made by injecting with a pipetter appropriate amounts of the application solutions, individually and sequentially, into the aqueous layer of the paddy. Control plants were treated in the same manner with the solvent blank. Applications were made so that all treated plant material received the same concentrations of acetone and crop oil concentrate. […]

[2] = test system: CYPIR (Cyperus iria, rice flatsedge); test: Postemergence foliar-applied weed control, direct seeded rice, greenhouse (Example I); type: in vivo, Cyperus iria L.; conditions: 22 DAA
From the text: (§8) Seeds or nutlets of the desired test plant species were planted in a soil matrix prepared by mixing a loam or sandy loam soil (e.g., 28.6 percent silt, 18.8 percent clay, and 52.6 percent sand, with a pH of about 5.8 and an organic matter content of about 1.8 percent) and calcareous grit in an 80 to 20 ratio. The soil matrix was contained in plastic pots with a volume of 1 quart and a surface area of 83.6 square centimeters (cm^2). When required to ensure good germination and healthy plants, a fungicide treatment and/or other chemical or physical treatment was applied. The plants were grown for 8-22 days in a greenhouse with an approximate 14 h photoperiod which was maintained at about 29° C. during the day and 26° C. during the night. Nutrients (Peters Excel® 15-5-15 5-Ca 2-Mg and iron chelate) were applied in the irrigation solution as needed and water was added on a regular basis. Supplemental lighting was provided with overhead metal halide 1000-Watt lamps as necessary. The plants were employed for testing when they reached the first through fourth true leaf stage.
(§9) Treatments consisted of the acid or esters of 4-amino-3-chloro-5-fluoro-6-(4-chloro-2-fluoro-3-methoxy-phenyl)pyridine-2-carboxylic acid (Compound A), each formulated as an SC, and various herbicidal components alone and in combination. Forms of compound A were applied on an acid equivalent basis.
(§10) Other herbicidal components were applied on an active ingredient basis and included acetolactate synthase (ALS)-inhibiting herbicides (sulfonylurea chemical class) azimsulfuron formulated as Gulliver®, bensulfuron-methyl formulated as Londax® 60DF, cyclosulfamuron (technical material), ethoxysulfuron formulated as Sunrice® 15 WDG, flazasulfuron formulated as Katana®, flucetosulfuron formulated as Sukedachi® 1KG G, foramsulfuron formulated as Option®, imazosulfuron formulated as Brazzos® WG, iodosulfuron-methyl-sodium formulated as Hussar®, metsulfuron-methyl formulated as Lorate®, nicosulfuron formulated as Accent®, orthosulfamuron formulated as Strada® WG, primisulfuron-methyl (technical material), propyrisulfuron formulated as Zeta One®, rimsulfuron formulated as Matrix® WG, sulfometuron-methyl formulated as Oust®, and trifloxysulfuron-sodium formulated as Monument® 75WG.
(§11) Treatment requirements were calculated based upon the rates being tested, the concentration of active ingredient or acid equivalent in the formulation, and a 12 mL application volume at a rate of 187 L/ha.
(§12) For treatments comprised of formulated compounds, measured amounts of compounds were placed individually in 25 mL glass vials and diluted in a volume of 1.25% (v/v) Agri-Dex® crop oil concentrated to obtain 12× stock solutions. […] Application solutions were prepared by adding an appropriate amount of each stock solution (e.g., 1 mL) and diluted to the appropriate final concentrations with the addition of 10 mL of an aqueous mixture of 1.25% (v/v) crop oil concentrate so that the final spray solutions contained 1.25+/−0.05% (v/v) Agrcrop oil concentrate.
(§13) For treatments comprised of formulated and technical compounds, weighed amounts of the technical materials were placed individually in 25 mL glass vials and dissolved in a volume of 97:3 v/v acetone/DMSO to obtain 12× stock solutions, and measured amounts of the formulated compounds were placed individually in 25 mL glass vials and diluted in a volume of 1.25% (v/v) crop oil concentrate to obtain 12× stock solutions. […] Application solutions were prepared by adding an appropriate amount of each stock solution (e.g., 1 mL) and diluted to the appropriate final concentrations with the addition of an appropriate amount of an aqueous mixture of 1.5% (v/v) crop oil concentrate so that the final spray solutions contained 1.25% (v/v) crop oil concentrate. […]

[3] = test system: LEFCH (Leptochloa chinensis, Chinese sprangletop); test: In-water applied weed control, transplanted paddy rice, greenhouse (Example II); type: in vivo, Leptochloa chinensis (L.) Nees
Protocol: as §1, §2, §3, §4, §5, §6, §7

[4] = test system: BRAPP (Brachiaria platyphylla, broadleaf signalgrass); test: Postemergence foliar-applied weed control, direct seeded rice, greenhouse (Example I); type: in vivo, Brachiaria platyphylla (Griseb.) Nash; conditions: Urochloa platyphylla, post-emergence, 528 h, 22 DAA, read-out: Visual Weed Control (%) Obs
From the text: as §8, §9, §10, §11, §12, §13

[5] = test system: ISCRU (Ischaemum rugosum, saramollagrass); test: as above; type: in vivo, Ischaemum rugosum Salisb.; conditions: 21 DAA
From the text: as §8, §9, §10, §11, §12, §13

[6] = test system: MATCH (Chamomilla chamomilla, scented mayweed); test: Post-emergence foliar-applied weed control in cereal crops, greenhouse (Example III); type: in vivo, Chamomilla chamomilla (L.) Rydb.; conditions: Table 59 (cereal), after 20-22 days, 2.2 gai/ha alone
Protocol: (§14) Seeds of the desired test plant species were planted in Sun Gro MetroMix® 306 planting mixture, which typically has a pH of 6.0 to 6.8 and an organic matter content of about 30 percent, in plastic pots with a surface area of 103.2 square centimeters (cm^2). When required to ensure good germination and healthy plants, a fungicide treatment and/or other chemical or physical treatment was applied. The plants were grown for 7-36 days in a greenhouse with an approximate 14 hour photoperiod which was maintained at about 18° C. during the day and 17° C. during the night. Nutrients and water were added on a regular basis and supplemental lighting was provided with overhead metal halide 1000-Watt lamps as necessary. The plants were employed for testing when they reached the second or third true leaf stage.
(§15) Treatments consisted of the benzyl ester of 4-amino-3-chloro-5-fluoro-6-(4-chloro-2-fluoro-3-methoxy-phenyl)pyridine-2-carboxylic acid (Compound A), formulated as an SC (suspension concentrate), and a second cereal herbicide alone and in combination.
(§16) Measured aliquot of benzyl ester of 4-amino-3-chloro-5-fluoro-6-(4-chloro-2-fluoro-3-methoxy-phenyl)pyridine-2-carboxylic acid (Compound A) was placed in 25 milliliter (mL) glass vials and diluted in a volume of 1.25% (v/v) Agri-dex crop oil concentrated to obtain stock solutions. Compound requirements are based upon a 12 mL application volume at a rate of 187 liters per hectare (L/ha). Spray solutions of the second cereal herbicide and experimental compound mixtures were prepared by adding the stock solutions to the appropriate amount of dilution solution to form 12 mL spray solution with active ingredients in two- and three-way combinations. Formulated compounds were applied to the plant material with an overhead Mandel track sprayer equipped with an 8002E nozzle calibrated to deliver 187 L/ha over an application area of 0.503 square meters (m^2) at a spray height of 18 inches (46 cm) above average plant canopy. Control plants were sprayed in the same manner with the solvent blank.
(§17) The treated plants and control plants were placed in a greenhouse as described above and watered by sub-irrigation to prevent wash-off of the test compounds. After 20-22 days, the condition of the test plants as compared with that of the control plants was determined visually and scored on a scale of 0 to 100 percent where 0 corresponds to no injury and 100 corresponds to complete kill.
(§18) Colby's equation was used to determine the herbicidal effects expected from the mixtures (Colby, S. R. 1967. Calculation of the synergistic and antagonistic response of herbicide combinations. Weeds 15:20-22.).
(§19) The following equation was used to calculate the expected activity of mixtures containing two active ingredients, A and B: Expected=A+B−(A×B/100)

[7] = test system: CIRAR (Cirsium arvense, Canada thistle); test: as above; type: in vivo, Cirsium arvense (L.) Scop.; conditions: Cirsium arvense, post-emergence; Table 59 (cereal); foliar-applied; after 20-22 days; 2.2 gai/ha alone; read-out: Weed Control CIRAR Obs
Protocol: as §14, §15, §16, §17, §18, §19

CCOc1ccccc1OS(=O)(=O)NC(=O)Nc1nc(OC)cc(OC)n1 [Ethoxysulfuron, 2-ethoxyphenyl[[(4,6-dimethoxy-2-pyrimidinyl)amino]carbonyl]sulfamate, reference compound]
Visual Weed Control (%) - 22 DAA ECHOR Obs ([1]; Table 34, 7.5 gai/ha alone): 10%
Visual Weed Control (%) - 22 DAA ECHOR Obs ([1]; Table 35, 7.5 gai/ha alone): 10%
Visual Weed Control (%) - 22 DAA ECHOR Obs ([1]; Table 35, 15 gai/ha alone): 20%
Visual Weed Control (%) Obs ([2]; 7.5 gai/ha): 50%
Visual Weed Control (%) Obs ([2]; 15 gai/ha): 50%
Visual Weed Control (%) Obs ([2]; 30 gai/ha): 85%
Visual Weed Control (%) - 22 DAA LEFCH Obs ([3]; Table 34, 15 gai/ha alone): 0%
Visual Weed Control (%) - 22 DAA LEFCH Obs ([3]; Table 35, 7.5 gai/ha alone): 0%
Visual Weed Control (%) - 22 DAA LEFCH Obs ([3]; Table 35, 15 gai/ha alone): 0%
pest or weed control at 7.5 g/ha ([4]; 7.5 gai/ha): 0%
pest or weed control at 15 g/ha ([4]; 15 gai/ha): 0%
pest or weed control at 30 g/ha ([4]; 30 gai/ha): 0%
Visual Weed Control (%) Obs ([5]; 17.5 gai/ha): 0%
Visual Weed Control (%) Obs ([5]; 70 gai/ha): 0%

COC(=O)c1ccccc1S(=O)(=O)NC(=O)N(C)c1nc(C)nc(OC)n1 [Tribenuron-methyl]
Weed Control MATCH Obs [6]: 90%
pest or weed control at 2.2 g/ha [7]: 50%
